Experimental data published in ChEMBL document CHEMBL3632622, “Synthesis and biological evaluation of novel N-phenyl ureidobenzenesulfonate derivatives as potential anticancer agents. Part 2. Modulation of the ring B” (Eur J Med Chem, 2015).
Active and inactive are the calls of the source. The rule behind the calls is not given here.

Experiments:
MCF7 = experiment: Antiproliferative activity against human MCF7 cells assessed as growth inhibition incubated for 48 hrs by sulforhodamine B assay; assay type: functional, cell-based; conditions: MCF7, 48 h
M21 [1] = experiment: Antiproliferative activity against human M21 cells assessed as growth inhibition incubated for 48 hrs by sulforhodamine B assay; assay type: functional, cell-based; conditions: M21, 48 h
M21 [2] = experiment: Cell cycle arrest in human M21 cells assessed as accumulation at G0/G1 phase at 8.1 uM after 24 hrs by DAPI staining-based flow cytometry (reference value: 65.1%); assay type: functional
HT-29 = experiment: Antiproliferative activity against human HT-29 cells assessed as growth inhibition incubated for 48 hrs by sulforhodamine B assay; assay type: functional, cell-based; conditions: HT-29, 48 h
M21 [3] = experiment: Cell cycle arrest in human M21 cells assessed as accumulation at subG1 phase at 8.1 uM after 24 hrs by DAPI staining-based flow cytometry (reference value: 1.5%); assay type: functional
M21 [4] = experiment: Induction DNA DSBs in human M21 cells assessed as increase in gamma H2AX foci at 20 uM incubated for 24 hrs by DAPI staining based immunocytochemistry; assay type: cell-based
M21 [5] = experiment: Cell cycle arrest in human M21 cells assessed as accumulation at G2/M phase at 8.1 uM after 24 hrs by DAPI staining-based flow cytometry (reference value: 16%); assay type: functional
M21 [6] = experiment: Cell cycle arrest in human M21 cells assessed as accumulation at S phase at 8.1 uM after 24 hrs by DAPI staining-based flow cytometry (reference value: 17.4%); assay type: functional
[7] = Antiproliferative activity against human HT1080 cells assessed as growth inhibition incubated for 48 hrs by sulforhodamine B assay; assay type: functional, cell-based, HT-1080
M21 [8] = experiment: Cell cycle arrest in human M21 cells assessed as accumulation at G2/M phase at 4.1 uM after 24 hrs by DAPI staining-based flow cytometry (reference value: 16%); assay type: functional
M21 [9] = experiment: Induction DNA DSBs in human M21 cells assessed as increase in gamma H2AX foci at 4.1 uM incubated for 24 hrs by DAPI staining based immunocytochemistry; assay type: cell-based
M21 [10] = experiment: Cell cycle arrest in human M21 cells assessed as accumulation at S phase at 4.1 uM after 24 hrs by DAPI staining-based flow cytometry (reference value: 17.4%); assay type: functional
M21 [11] = experiment: Cell cycle arrest in human M21 cells assessed as accumulation at G0/G1 phase at 4.1 uM after 24 hrs by DAPI staining-based flow cytometry (reference value: 65.1%); assay type: functional
M21 [12] = experiment: Cell cycle arrest in human M21 cells assessed as accumulation at subG1 phase at 4.1 uM after 24 hrs by DAPI staining-based flow cytometry (reference value: 1.5%); assay type: functional
M21 [13] = experiment: Cell cycle arrest in human M21 cells assessed as accumulation at S phase at 39 uM after 24 hrs by DAPI staining-based flow cytometry (reference value: 17.4%); assay type: functional
M21 [14] = experiment: Cell cycle arrest in human M21 cells assessed as accumulation at G0/G1 phase at 39 uM after 24 hrs by DAPI staining-based flow cytometry (reference value: 65.1%); assay type: functional
M21 [15] = experiment: Cell cycle arrest in human M21 cells assessed as accumulation at subG1 phase at 39 uM after 24 hrs by DAPI staining-based flow cytometry (reference value: 1.5%); assay type: functional
M21 [16] = experiment: Cell cycle arrest in human M21 cells assessed as accumulation at G2/M phase at 39 uM after 24 hrs by DAPI staining-based flow cytometry (reference value: 16%); assay type: functional
M21 [17] = experiment: Cell cycle arrest in human M21 cells assessed as accumulation at subG1 phase at 7.6 uM after 24 hrs by DAPI staining-based flow cytometry (reference value: 1.5%); assay type: functional
M21 [18] = experiment: Cell cycle arrest in human M21 cells assessed as accumulation at G2/M phase at 7.6 uM after 24 hrs by DAPI staining-based flow cytometry (reference value: 16%); assay type: functional
M21 [19] = experiment: Cell cycle arrest in human M21 cells assessed as accumulation at G0/G1 phase at 7.6 uM after 24 hrs by DAPI staining-based flow cytometry (reference value: 65.1%); assay type: functional
M21 [20] = experiment: Cell cycle arrest in human M21 cells assessed as accumulation at S phase at 7.6 uM after 24 hrs by DAPI staining-based flow cytometry (reference value: 17.4%); assay type: functional
M21 [21] = experiment: Cell cycle arrest in human M21 cells assessed as accumulation at G0/G1 phase at 1 uM after 24 hrs by DAPI staining-based flow cytometry (reference value: 65.1%); assay type: functional
M21 [22] = experiment: Induction DNA DSBs in human M21 cells assessed as increase in gamma H2AX foci at 1 uM incubated for 24 hrs by DAPI staining based immunocytochemistry; assay type: cell-based
M21 [23] = experiment: Cell cycle arrest in human M21 cells assessed as accumulation at subG1 phase at 1 uM after 24 hrs by DAPI staining-based flow cytometry (reference value: 1.5%); assay type: functional
M21 [24] = experiment: Cell cycle arrest in human M21 cells assessed as accumulation at G2/M phase at 1 uM after 24 hrs by DAPI staining-based flow cytometry (reference value: 16%); assay type: functional
M21 [25] = experiment: Cell cycle arrest in human M21 cells assessed as accumulation at S phase at 1 uM after 24 hrs by DAPI staining-based flow cytometry (reference value: 17.4%); assay type: functional
[26] = Homo sapiens, HT-1080, 48 h, read-out: IC50

| IC50 (MCF7) [µM] | IC50 (HT-29) [µM] | Compound | IC50 (M21 [1]) [µM] | IC50 [7, 26] [µM] | further results |
| --- | --- | --- | --- | --- | --- |
| 6 | 5.4 | O=C(NCCCl)Nc1ccc(S(=O)(=O)Oc2ccccc2F)cc1 | 4 | 3.2 | Activity (M21 [2]): 25.2%; Activity (M21 [3]): 2.6%; Activity (M21 [4]): Active; Activity (M21 [5]): 34.6%; Activity (M21 [6]): 37.6% |
| 13 | 11 | CCCc1ccc(OS(=O)(=O)c2ccc(NC(=O)NCCCl)cc2)cc1 | 12 | 5.2 | – |
| – | – | O=C(NCCCl)Nc1ccc(S(=O)(=O)Oc2ccc(O)cc2)cc1 | – | – | IC50 ([7]; ht-1080): Not Active |
| 19 | 18 | N#Cc1ccc(OS(=O)(=O)c2ccc(NC(=O)NCCCl)cc2)cc1 | 19 | 14 | – |
| 3.9 | 3.6 | Cc1ccc(OS(=O)(=O)c2ccc(NC(=O)NCCCl)cc2)c(C)c1 | 2.1 | 1.3 | Activity (M21 [8]): 23.8%; Activity (M21 [9]): Active; Activity (M21 [10]): 46.4%; Activity (M21 [11]): 28.4%; Activity (M21 [12]): 1.4% |
| 9.4 | 6.6 | Cc1cc(OS(=O)(=O)c2ccc(NC(=O)NCCCl)cc2)cc(C)c1C | 6.5 | 9 | Activity (M21 [13]): 14.8%; Activity (M21 [14]): 11.4%; Activity (M21 [15]): 8.7%; Activity (M21 [16]): 65.1% |
| 17 | 15 | CC(C)(C)c1ccc(OS(=O)(=O)c2ccc(NC(=O)NCCCl)cc2)cc1 | 18 | 6.8 | – |
| 14 | 12 | O=C(NCCCl)Nc1ccc(S(=O)(=O)Oc2ccc(F)cc2)cc1 | 12 | 11 | – |
| 19 | 20 | Cc1ccc(OS(=O)(=O)c2ccc(NC(=O)NCCCl)cc2)cc1 | 17 | 12 | – |
| 1.8 | 1.3 | O=C(NCCCl)Nc1ccc(S(=O)(=O)Oc2cccc(I)c2)cc1 | 1.2 | 1.4 | Activity (M21 [17]): 3.6%; Activity (M21 [18]): 89.5%; Activity (M21 [19]): 2%; Activity (M21 [20]): 4.9% |
| 1.9 | 1.5 | Cc1ccc(C)c(OS(=O)(=O)c2ccc(NC(=O)NCCCl)cc2)c1 | 1.5 | 1.7 | Activity (M21 [17]): 5.5%; Activity (M21 [18]): 75.4%; Activity (M21 [19]): 7.2%; Activity (M21 [20]): 11.9% |
| 1.8 | 1.5 | CC(C)c1ccccc1OS(=O)(=O)c1ccc(NC(=O)NCCCl)cc1 | 1.5 | 0.84 | Activity (M21 [21]): 23.6%; Activity (M21 [22]): Active; Activity (M21 [23]): 1.2%; Activity (M21 [24]): 23.4%; Activity (M21 [25]): 51.8% |
| 7.1 | 5.6 | CCc1cccc(OS(=O)(=O)c2ccc(NC(=O)NCCCl)cc2)c1 | 6 | 3.8 | Activity (M21 [13]): 11.3%; Activity (M21 [14]): 15.2%; Activity (M21 [15]): 5%; Activity (M21 [16]): 68.5% |
| 11 | 9.5 | O=C(NCCCl)Nc1ccc(S(=O)(=O)Oc2ccc(I)cc2)cc1 | 11 | 8.7 | – |
| – | – | CCNC(=O)Nc1ccc(S(=O)(=O)Oc2ccccc2CC)cc1 | – | 0.36 | – |
